# Measured values taken from PubChem BioAssay AID588641 (Sanford-Burnham Center for Chemical Genomics, 2011).
# Active and inactive are the calls of the source. How the calls were made is not given here.
# Biological target: alkaline phosphatase, placental type (human)
# Assay: inhibitors of placental alkaline phosphatase – biochemical, human PLAP isozyme, set 2, selectivity assay for mouse IAP inhibitor project, SAR follow-up (AID 588641)
# Conditions: purified human placental alkaline phosphatase, enzyme activity
row,SMILES,IC50
1,O=C(N/N=C/c1c(F)cccc1F)c1ccc(O)cc1,> 100 µM (inactive)
2,O=C(CCNS(=O)(=O)c1ccc2ccccc2c1)NCCc1ccc2c(c1)OCO2,> 100 µM (inactive)
3,O=C(N/N=C/c1cccc(Cl)c1Cl)c1cc(O)c(O)c(O)c1,> 100 µM (inactive)
4,O=C(N/N=C/c1ccc(F)c(Br)c1)c1cc(O)c(O)c(O)c1,> 100 µM (inactive)
5,Cc1ccc(C)c(CNC(=O)C2CCCN(S(=O)(=O)c3ccc4[nH]c(=O)oc4c3)C2)c1 (stereo not given),> 100 µM (inactive)
6,O=C(N/N=C/c1ccc(Cl)c(Cl)c1)c1cc(O)c(O)c(O)c1,> 100 µM (inactive)
7,CC(C)Oc1ccc(CNC(=O)C2CCCN(S(=O)(=O)c3ccc4[nH]c(=O)oc4c3)C2)cc1 (stereo not given),> 100 µM (inactive)
8,COc1ccc(C(=O)N/N=C/c2ccccc2F)cc1,> 100 µM (inactive)
9,CC(C)c1ccc(/C=N/NC(=O)c2cc(O)c(O)c(O)c2)cc1,> 100 µM (inactive)
10,Cc1ccccc1CNC(=O)C1CCCN(S(=O)(=O)c2ccc3[nH]c(=O)oc3c2)C1 (stereo not given),> 100 µM (inactive)
11,N#Cc1cccc(NC(=O)CNS(=O)(=O)c2ccc3[nH]c(=O)oc3c2)c1,> 100 µM (inactive)
12,C/C(=N\NC(=O)c1cc(O)c(O)c(O)c1)c1ccc(O)cc1O,> 100 µM (inactive)
13,N#Cc1ccc(NS(=O)(=O)c2ccc3[nH]c(=O)oc3c2)cc1,> 100 µM (inactive)
14,O=C(CCCNS(=O)(=O)c1ccc2[nH]c(=O)oc2c1)NCc1ccc2c(c1)OCO2,> 100 µM (inactive)
15,O=c1[nH]c2ccc(S(=O)(=O)NCc3ccc4c(c3)OCO4)cc2o1,> 100 µM (inactive)
16,CC(C)(C)c1ccc(/C=N/NC(=O)c2cc(O)c(O)c(O)c2)cc1,60.8 µM
17,O=C(N/N=C/c1ccccc1F)c1ccccc1OCc1ccccc1,> 100 µM (inactive)
18,O=C(N/N=C/c1ccc(Br)cc1F)c1cc(O)ccc1O,> 100 µM (inactive)
19,COc1cc(/C=N/NC(=O)c2cc(O)c(O)c(O)c2)ccc1O,> 100 µM (inactive)
20,N#Cc1ccc(NC(=O)CNS(=O)(=O)c2ccc3[nH]c(=O)oc3c2)cc1,> 100 µM (inactive)

row,SMILES,IC50
1,O=C(N/N=C/c1ccc(F)cc1F)c1ccc(O)cc1,> 100 µM (inactive)
2,O=C(CCNS(=O)(=O)c1ccc2c(c1)CCC2)NCCc1ccc2c(c1)OCO2,> 100 µM (inactive)
3,COc1cccc(C(=O)N/N=C/c2ccccc2F)c1,> 100 µM (inactive)
4,O=C(CCNS(=O)(=O)c1ccc2[nH]c(=O)oc2c1)NCCc1ccc2c(c1)OCO2,> 100 µM (inactive)
5,O=c1[nH]c2ccc(S(=O)(=O)Nc3ccc4c(c3)OCO4)cc2o1,> 100 µM (inactive)
6,O=C(CCS(=O)(=O)Nc1ccc2[nH]c(=O)oc2c1)NCc1ccccc1Cl,> 100 µM (inactive)
7,Cc1ccc(CNC(=O)C2CCCN(S(=O)(=O)c3ccc4[nH]c(=O)oc4c3)C2)cc1 (stereo not given),> 100 µM (inactive)
8,O=C(NCc1ccc2c(c1)OCO2)C1CCCN(S(=O)(=O)c2ccc3[nH]c(=O)oc3c2)C1 (stereo not given),> 100 µM (inactive)
9,O=C(CCNS(=O)(=O)c1ccc2[nH]c(=O)oc2c1)NCCc1ccc(O)cc1,> 100 µM (inactive)
10,O=C(CCS(=O)(=O)Nc1ccc2[nH]c(=O)oc2c1)NCc1cccc(F)c1,> 100 µM (inactive)
11,COc1ccc(CNS(=O)(=O)c2ccc3[nH]c(=O)oc3c2)cc1,> 100 µM (inactive)
12,CCc1ccc(NC(=O)C2CCCN(S(=O)(=O)c3ccc4c(c3)oc(=O)n4C)C2)cc1 (stereo not given),> 100 µM (inactive)
13,O=C(CCCNS(=O)(=O)c1ccc2[nH]c(=O)oc2c1)NCc1cccc(F)c1,> 100 µM (inactive)
14,COc1ccc(/C=N/NC(=O)c2cc(O)c(O)c(O)c2)c(OC)c1,> 100 µM (inactive)
15,O=C(CCNS(=O)(=O)c1ccc2[nH]c(=O)oc2c1)NCc1cccc(C(F)(F)F)c1,> 100 µM (inactive)
16,O=C(N/N=C/c1c(Cl)cccc1Cl)c1cc(O)c(O)c(O)c1,> 100 µM (inactive)
17,O=C(NCc1ccc(F)cc1)C1CCCN(S(=O)(=O)c2ccc3[nH]c(=O)oc3c2)C1 (stereo not given),> 100 µM (inactive)
18,COc1ccc(/C=N/NC(=O)c2cc(O)c(O)c(O)c2)cc1OC,> 100 µM (inactive)
19,COc1ccc(/C=N\NC(=O)c2cc(O)c(O)c(O)c2)cc1CN1CCN(c2ccc(F)cc2)CC1,> 100 µM (inactive)
20,Cc1ccc(C)c(NS(=O)(=O)c2ccc3[nH]c(=O)oc3c2)c1,> 100 µM (inactive)

# Next, values leading:
row,IC50,SMILES
1,> 100 µM (inactive),COc1ccc(NC(=O)CCNS(=O)(=O)c2ccc3ccccc3c2)cc1OC
2,> 100 µM (inactive),COc1ccc(CNC(=O)CNS(=O)(=O)c2ccc3[nH]c(=O)oc3c2)cc1
3,> 100 µM (inactive),COc1ccc(OC)c(NC(=O)C2CCCN(S(=O)(=O)c3ccc4c(c3)oc(=O)n4C)C2)c1 (stereo not given)
4,> 100 µM (inactive),COc1ccc(NC(=O)CCCNS(=O)(=O)c2ccc3[nH]c(=O)oc3c2)c(OC)c1
5,> 100 µM (inactive),COc1cccc(CNC(=O)CCNS(=O)(=O)c2ccc3[nH]c(=O)oc3c2)c1
6,> 100 µM (inactive),N#Cc1cccc(CNC(=O)CCNS(=O)(=O)c2ccc3[nH]c(=O)oc3c2)c1
7,> 100 µM (inactive),CSc1cccc(NC(=O)CCNS(=O)(=O)c2ccc3c(c2)oc(=O)n3C)c1
8,> 100 µM (inactive),COc1ccc(NC(=O)CCNS(=O)(=O)c2ccc3c(c2)CCC3)cc1OC
9,> 100 µM (inactive),COc1cccc(CNC(=O)CNS(=O)(=O)c2ccc3[nH]c(=O)oc3c2)c1
10,> 100 µM (inactive),COc1cccc(NC(=O)CCNS(=O)(=O)c2ccc3c(c2)oc(=O)n3C)c1
11,> 100 µM (inactive),COc1ccc(NC(=O)CCCNS(=O)(=O)c2ccc3[nH]c(=O)oc3c2)cc1OC
12,> 100 µM (inactive),COc1ccc(CNC(=O)CCNS(=O)(=O)c2ccc3[nH]c(=O)oc3c2)cc1
13,> 100 µM (inactive),Cc1ccc(C)c(NC(=O)CCNS(=O)(=O)c2ccc3[nH]c(=O)oc3c2)c1
14,> 100 µM (inactive),O=C(CCNS(=O)(=O)c1ccc2[nH]c(=O)oc2c1)NCc1cccc(F)c1
15,> 100 µM (inactive),COc1ccc(CNC(=O)CCCNS(=O)(=O)c2ccc3[nH]c(=O)oc3c2)cc1OC
16,> 100 µM (inactive),COc1ccc(CNC(=O)CCNS(=O)(=O)c2ccc3c(c2)CCC3)c(OC)c1
17,> 100 µM (inactive),O=C(CCNS(=O)(=O)c1ccc2[nH]c(=O)oc2c1)NCc1ccc2c(c1)OCO2
18,> 100 µM (inactive),O=C(CCNS(=O)(=O)c1ccc2[nH]c(=O)oc2c1)Nc1ccc2c(c1)OCO2
19,> 100 µM (inactive),Cc1ccc(C)c(NC(=O)CCNS(=O)(=O)c2ccc3ccccc3c2)c1
20,> 100 µM (inactive),COc1ccc(OC)c(NC(=O)CCNS(=O)(=O)c2ccc3c(c2)oc(=O)n3C)c1
21,> 100 µM (inactive),COc1ccc(CCNC(=O)CCCNS(=O)(=O)c2ccc3[nH]c(=O)oc3c2)cc1OC
22,> 100 µM (inactive),COc1ccc(CNC(=O)CNS(=O)(=O)c2ccc3[nH]c(=O)oc3c2)c(OC)c1
23,> 100 µM (inactive),Cc1ccc(C)c(NC(=O)CNS(=O)(=O)c2ccc3[nH]c(=O)oc3c2)c1
24,> 100 µM (inactive),Cc1cc(NC(=O)CCNS(=O)(=O)c2ccc3[nH]c(=O)oc3c2)ccc1Br
25,> 100 µM (inactive),Cc1ccc(NC(=O)CCNS(=O)(=O)c2ccc3c(c2)oc(=O)n3C)cc1C
